Test system: vascular smooth muscle cell (SMC)
Test: Effect on proliferation of vascular smooth muscle cell (SMC), XTT assay
Format: cell-based
Settings: 1 uM; XTT at 1, 4 and 7 days; versus untreated control, which grew until 7 days; FIG. 1
Procedure: As cells used in a cell culture, the vascular smooth muscle cell (SMC) which is a smooth muscle cell, and the human umbilical vein endothelial cell (HUVEC) which is the cell for promoting vascular re-endothelialization were purchased from Korea Cell Line Bank, respectively. The cell culture was performed by culturing the vascular smooth muscle cell (SMC) and the human umbilical vein endothelial cell (HUVEC) in Dulbecoco's modified eagle medium (DMEM) with 10% fetal bovine serum (FBS) under conditions of 37° C. and 5% CO2. […]
5×10^4 of SMC cells cultured according to Example 2 were cultured in the 24-well cell culture plate and then treated with 1 uM of the peptide compound prepared by Example 2 (hereinafter, referred to as ‘EVR-P’). […] After the reaction, 200 ul of the culture medium was transferred from each well to a 96 well cell culture dish, and degree of color change was measured from absorbance at a 450 nm wavelength by a spectroscopy.
5×10^4 of SMC cells cultured according to Example 2 were cultured in the 24-well cell culture plate and then treated with 1 uM of the known Everolimus (EVR)(LC Laboratories). […] After the reaction, 200 ul of the culture medium was transferred from each well to the 96 well cell culture dish, and degree of color change was measured from absorbance at a 450 nm wavelength by a spectroscopy.

## CO[C@H]1C[C@@H]2CC[C@@H](C)[C@@](O)(O2)C(=O)C(=O)N2CCCC[C@H]2C(=O)O[C@H]([C@H](C)C[C@@H]2CC[C@@H](OCCO)[C@H](OC)C2)CC(=O)[C@H](C)/C=C(\C)[C@@H](O)[C@@H](OC)C(=O)[C@H](C)C[C@H](C)/C=C/C=C/C=C/1C [EVR, Everolimus]
  SMC cell proliferation (XTT, absorbance at 450 nm): cell proliferation was inhibited
